{"source": "patent US20260077018A1", "about": "“TREATMENT OF MILD TRAUMATIC BRAIN INJURY” (OXEIA BIOPHARMACEUTICALS, INC., priority 2022, published 2026)", "key": {"[1]": {"system": "persistently symptomatic concussion patients", "assay": "Phase 2 study of OXE-103 in persistently symptomatic concussion: QOLIBRI quality of life", "type": "in vivo, human", "settings": "Treated, 13 subjects", "method": "Describe the change in quality of life between the two groups. This aim defines one of the secondary objectives. To assess this, the Quality of Life after Brain Injury scale (QOLIBRI) and a Patient Global Assessment of Status (PGAS) are administered. […] The primary objective with this aim assesses the change between days 1 and 14.\nDescribed herein is a randomized, double-blind, placebo-controlled design where 40 subjects will be randomized to either a placebo cohort or a treatment with OXE-103 cohort. We randomize using the RedCap database. The database is set up to share randomization allocation only with the investigational pharmacy. All subjects are consented and begin the screening period within 28 days post-injury. There is a 7-day screening period prior to randomization and commencement of study treatment to allow for assessment of stability of symptom burden. This screening period must start no later than 28 days post-injury. Starting with Day 1 (end of screening period), the treatment cohort receives OXE-103 40ug/kg SC twice daily by self-injection and the placebo group receives a placebo injection SC twice daily. Study drug and placebo are maintained and dispensed by Investigational Pharmacy. Subjects receive an 8-day supply of syringes pre-loaded with OXE-103 or placebo. Each cohort receives the 2nd set of syringes with OXE-103 or placebo at the day 7 visit. No therapies other than OXE-103 are administered during the 14-day treatment period to either cohort. After completion of 14 days of either placebo or OXE-103 treatment, starting with the Day 14 visit, other medications and therapies can be initiated for either cohort as needed.\nQuality of Life (AIM 2): A secondary goal is to examine change in quality of life with treatment of sub-acute concussion. Without bewing bound by theory, it is hypothesized that OXE-103 will reduce symptoms when comparing days 1 and 15 and therefore improve quality of life as assessed by 1) Quality of Life after Brain Injury scale (QOLIBRI) and 2) a PGAS.\nThe QOLIBRI is a 37 item instrument specifically developed to assess health-related quality of life (HRQoL) of individuals after traumatic brain injury. This is built into a RedCap Survey that will be completed online. Since it was developed for TBI as a disease or condition-specific HRQoL instrument, it is expected to be more sensitive than generic quality of life tools. The QOLIBRI was developed by an international task force in two multi-language studies involving over 2000 persons after TBI. Use of a TBI-specific assessment of HRQoL can detect the effects of interventions by measuring physical, psychological, daily life and psychosocial changes typical of TBI. An increase/decrease of 20% in QOLIBRI is judged to represent an improvement.\nThe QOL measures are obtained on day 1, 4, 8, 11, 15, 21, & 44. The completion of these takes an estimated 15 minutes.\nA Phase 2 study of treatment of persistently symptomatic concussion patients with ghrelin (OXE-103) was undertaken at the University of Kansas Medical Center generally as described in Example 1. The interim results are reported herein (FIG. 1).\nA study to treat patients with sub-acute concussion using a pharmaceutical formulation of ghrelin (OXE-103) was performed. The completed results from treatment group of 10 patients were compared to a 3 patient placebo group receiving standard of care (SoC). Additionally, two other patients are currently undergoing the treatment arm of the study at the time of the interim report. The study was performed in a randomized, double blind fashion and compared using self-report symptom scoring, quality of life questionnaires, computerized cognitive testing assessing executive function, memory and processing speed, and accelerometer-based balance scoring.\nFeedback from clinicians indicated a 20% decrease in concussion symptoms would be considered clinically significant improvement. […]"}, "[2]": {"settings": "in vivo; cited from earlier work"}}, "note": "No end group written: not given here. *: point of attachment. Octanoyl = CCCCCCCC(=O)*"}
{"substance": "ghrelin (GSS(Octanoyl)FLSPEHQRVQQRKESKKPPAKLQPR; UniProt Q9UBU3 24-51, looked up) [OXE-103]", "values": [{"measurement": "20% Responders - QOLIBRI: Number of Responders", "setting": "[1]; Day 1", "result": 0}, {"measurement": "20% Responders - QOLIBRI: Responder %", "setting": "[1]; Day 1", "result": 0, "unit": "%"}, {"measurement": "30% Responders - QOLIBRI: Number of Responders", "setting": "[1]; Day 1", "result": 0}, {"measurement": "30% Responders - QOLIBRI: Responder %", "setting": "[1]; Day 1", "result": 0, "unit": "%"}, {"measurement": "20% Responders - QOLIBRI: Number of Responders", "setting": "[1]; Day 4", "result": 4}, {"measurement": "20% Responders - QOLIBRI: Responder %", "setting": "[1]; Day 4", "result": 31, "unit": "%"}, {"measurement": "30% Responders - QOLIBRI: Number of Responders", "setting": "[1]; Day 4", "result": 3}, {"measurement": "30% Responders - QOLIBRI: Responder %", "setting": "[1]; Day 4", "result": 23, "unit": "%"}, {"measurement": "20% Responders - QOLIBRI: Number of Responders", "setting": "[1]; Day 8", "result": 4}, {"measurement": "20% Responders - QOLIBRI: Responder %", "setting": "[1]; Day 8", "result": 31, "unit": "%"}, {"measurement": "30% Responders - QOLIBRI: Number of Responders", "setting": "[1]; Day 8", "result": 4}, {"measurement": "30% Responders - QOLIBRI: Responder %", "setting": "[1]; Day 8", "result": 31, "unit": "%"}, {"measurement": "20% Responders - QOLIBRI: Number of Responders", "setting": "[1]; Day 11", "result": 7}, {"measurement": "20% Responders - QOLIBRI: Responder %", "setting": "[1]; Day 11", "result": 54, "unit": "%"}, {"measurement": "30% Responders - QOLIBRI: Number of Responders", "setting": "[1]; Day 11", "result": 5}, {"measurement": "30% Responders - QOLIBRI: Responder %", "setting": "[1]; Day 11", "result": 38, "unit": "%"}, {"measurement": "20% Responders - QOLIBRI: Number of Responders", "setting": "[1]; Day 15", "result": 7}, {"measurement": "20% Responders - QOLIBRI: Responder %", "setting": "[1]; Day 15", "result": 54, "unit": "%"}, {"measurement": "30% Responders - QOLIBRI: Number of Responders", "setting": "[1]; Day 15", "result": 5}, {"measurement": "30% Responders - QOLIBRI: Responder %", "setting": "[1]; Day 15", "result": 38, "unit": "%"}, {"measurement": "20% Responders - QOLIBRI: Number of Responders", "setting": "[1]; Day 21", "result": 9}, {"measurement": "20% Responders - QOLIBRI: Responder %", "setting": "[1]; Day 21", "result": 69, "unit": "%"}, {"measurement": "30% Responders - QOLIBRI: Number of Responders", "setting": "[1]; Day 21", "result": 7}, {"measurement": "30% Responders - QOLIBRI: Responder %", "setting": "[1]; Day 21", "result": 54, "unit": "%"}, {"measurement": "20% Responders - QOLIBRI: Number of Responders", "setting": "[1]; Day 44", "result": 11}, {"measurement": "20% Responders - QOLIBRI: Responder %", "setting": "[1]; Day 44", "result": 85, "unit": "%"}, {"measurement": "30% Responders - QOLIBRI: Number of Responders", "setting": "[1]; Day 44", "result": 10}, {"measurement": "30% Responders - QOLIBRI: Responder %", "setting": "[1]; Day 44", "result": 77, "unit": "%"}, {"measurement": "serum half-life", "setting": "[2]", "result": "about 30 minutes"}]}
